Reference: patent publication US9840532B2, “5′-substituted nucleoside compounds” (Eli Lilly and Company, priority 2015, dated 2017)

Columns and labels:
[1] = tested on: PRMT5-mediated retention of exon 6 in the processed MDM4 mRNA in A375 tumor cells; experiment: Mouse A375 Xenograft Tumor MDM4 Exon5/6 RNA Splicing Assay; format: in vivo; conditions: A-375, PO given QD or BID, tumors 4 hr after last dose, 4 days of dosing, read-out: dose achieving 50% effect (ED50)
Description: The purpose of this assay is to measure the ability of a test compound to inhibit PRMT5-mediated retention of exon 6 in the processed MDM4 mRNA in A375 tumor cells in a mouse tumor xenograft model. This assay represents the effect of a test compound on specific PRMT5-mediated splicing events in tumors in an animal model.
Grow A375 cells in medium (DMEM high glucose/10% Hi FBS) at 37° C. in an incubator (5% CO2) for 18-24 hr. Mix the cells with MATRIGEL® (1:1) and implant the cells (5×10^6/animal) subcutaneously into the rear flank of the mice (female nude mice, Harlan). The implanted tumor cells grow as solid tumors. Measure the tumor volume and body weight twice a week with a caliper. After tumor volume reaches approximately 200-250 mm^3 (about 20 days after implant), randomize the animals, and group them into compound treatment groups. Administer the test compounds (formulated in SWFI with 1% HEC/0.25% TWEEN® 80/0.05% Antifoam) by oral gavage. Test compound doses are in the range of 3 to 100 mg/kg. Sacrifice mice 4 hr after the last dose (4 days of dosing).
Harvest tumor tissues and homogenize as described below. Place tumor samples in a bowl and add 1 mL of liquid N2. Squash the tumor in the bowl. Transfer small pieces of tumor (about 20 mg each) into 2 lysing matrix D tubes (MPBIO cat. #6913-250). Use one tube for RNA processing and the other for protein lysate preparation. For RNA processing, homogenize the tumor tissues in an RNEASY® Mini Kit (QIAGEN-74104) extraction buffer (0.5 mL each) for 30 seconds using a Bio101 FastPrep FP120 homogenizer (setting 6). Total RNA is purified with QUARTZY® RNEASY® Mini Kit −50 (QIAGEN-74104, RNEASY® Mini Handbook, Fourth Edition, June 2012). Check the RNA concentration to ensure OD 260/280 […]≧1.9. For cDNA synthesis use A&B APPLIED BIOSYSTEMS®, High Capacity cDNA Reverse Transcription Kit (cat. #4368813). Use 1 μg total RNA (10 μL) in each RT reaction volume of 20 μL, containing 10×RT Buffer—2.0 μL; 25×dNTP Mix (100 mM)—0.8 μL; 10×RT Random Primers—2.0 μL; MULTISCRIBE™ Reverse Transcriptase—1.0 μL; Nuclease-free H2O—[…]. […]

A375 cells = experiment: Protocol Proliferation 7-day (CELL TITER-GLO); format: cell-based; conditions: Homo sapiens, A-375, 168 h, 7 days, Mean ± SEM
Description: The purpose of this assay is to measure the ability of test compounds to inhibit proliferation of cancer cells.
On day 1, plate A375 cells (ATCC, DMEM high glucose/10% Hi FBS) at 250 cells/well (100 μL/well) in a 96-well assay plate (BD Falcon 35-3219). Incubate the plates in a 37° C. incubator (5% CO2) for 18-24 hr. On day 2, prepare and serially dilute test compounds in medium (1:2 10-point serial dilution) from compound stock solutions (10 mM in 100% DMSO). Add 10 μL of serial diluted test compounds to cell plates (0.2% DMSO final concentration). Add 10 μL of reference compound (Example 1) to column 1 of cell plates (20 μM final, 0.2% DMSO). Incubate cell plates at 37° C./5% CO2 for 7 days. On day nine, thaw the CELL TITER-GLO® (Promega #G7571) buffer and equilibrate to room temperature prior to use. Also, equilibrate the lyophilized CELL TITER-GLO® substrate to room temperature prior to use. Transfer CELL TITER-GLO® buffer to an amber substrate bottle to reconstitute the lyophilized enzyme/substrate mixture to form the CELL TITER-GLO® reagent. Equilibrate the cell plate(s) to room temperature for […] Gently remove media in cell plates by flicking and blotting on a stack of paper towels. Add CELL TITER-GLO® reagent (25 μL) to each well. Incubate plates for […] at room temperature before reading. Measure luminescence using PERKIN-ELMER® ENVISION® Multi-label Plate Reader. Analyze this luminescence data by a 4-parameter curve fit using Activity Base, to yield cell proliferation IC50 values.

`C[C@@](O)(c1ccc(Cl)cc1)[C@H]1O[C@@H](n2ccc3c(N)ncnc32)[C@H](O)[C@@H]1O` [Example 3, (2R,3R,4S,5S)-2-(4-Aminopyrrolo[2,3-d]pyrimidin-7-yl)-5-[(1R)-1-(4-chlorophenyl)-1-hydroxy-ethyl]tetrahydrofuran-3,4-diol] was tested, and the ED50 [1] was ≤ 30 mg/kg and the IC50 (A375 cells) was 44 nM.

With `Nc1ncnc2c1ccn2[C@@H]1O[C@H]([C@H](O)c2ccc(Cl)cc2)[C@@H](O)[C@H]1O` [Example 1, (2R,3R,4S,5R)-2-(4-Aminopyrrolo[2,3-d]pyrimidin-7-yl)-5-[(R)-(4-chlorophenyl)-hydroxy-methyl]tetrahydrofuran-3,4-diol] the ED50 [1] was ≤ 30 mg/kg and the IC50 (A375 cells) was 10.8 nM.

For `Nc1ncnc2c1ccn2[C@@H]1O[C@H]([C@H](O)c2ccccc2)[C@@H](O)[C@H]1O` [Example 2, (2R,3R,4S,5R)-2-(4-Aminopyrrolo[2,3-d]pyrimidin-7-yl)-5[(R)-hydroxy(phenyl)methyl]tetrahydrofuran-3,4-diol], the ED50 [1] was ≤ 30 mg/kg and the IC50 (A375 cells) was 31.5 nM.
